Target: P. falciparum apicoplast DNA polymerase (Pf-apPOL) (Plasmodium falciparum, UniProt Q8ILY1)
Test: Fluorescence-based high-throughput DNA polymerase assay (molecular beacon), primary screen and dose-response
Assay type: biochemical
Outline: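 Single-point screening used 10 µM compound with 20 nM polymerase, 20 nM hairpin substrate and 6 µM dNTPs for 90 min at 25 °C. Confirmatory titrations (2.5–80 µM) followed fluorescence at three times, and IC50 was derived from a fit including a cooperativity term n.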

Chain of P. falciparum apicoplast DNA polymerase (Pf-apPOL) (Q8ILY1 entry or part of it): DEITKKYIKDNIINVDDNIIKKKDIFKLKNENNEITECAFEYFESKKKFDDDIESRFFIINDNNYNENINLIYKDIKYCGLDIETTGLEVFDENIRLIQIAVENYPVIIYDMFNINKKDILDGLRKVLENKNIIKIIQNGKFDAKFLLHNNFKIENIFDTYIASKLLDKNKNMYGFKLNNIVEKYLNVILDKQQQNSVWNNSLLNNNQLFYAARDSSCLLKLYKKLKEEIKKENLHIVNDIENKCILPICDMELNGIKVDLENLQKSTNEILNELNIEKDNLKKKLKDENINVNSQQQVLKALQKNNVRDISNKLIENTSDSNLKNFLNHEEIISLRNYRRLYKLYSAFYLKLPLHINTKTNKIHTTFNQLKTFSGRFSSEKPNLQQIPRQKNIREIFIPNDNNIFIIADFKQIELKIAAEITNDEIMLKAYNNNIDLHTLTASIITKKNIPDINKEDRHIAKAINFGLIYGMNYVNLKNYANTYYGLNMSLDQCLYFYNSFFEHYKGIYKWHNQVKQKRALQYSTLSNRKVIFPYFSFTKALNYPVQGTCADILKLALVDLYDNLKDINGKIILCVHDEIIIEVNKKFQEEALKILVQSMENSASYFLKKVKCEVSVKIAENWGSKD

## COc1ccc2c(c1)C(c1ccccc1OC)CC(=O)O2 (centres unmarked) [Molecule 38, COc1ccc2c(c1)C(CC(=O)O2)c1ccccc1OC]
'DNA Pol' of the 186 hits list (primary screen result); unit not given; 90 min, 10 µM
  DNA Pol: 27
DRC-1; 10'; concentration 2.5
  % inhibition Apo pol 10': 10.6274%
DRC-1; 10'; concentration 5
  % inhibition Apo pol 10': 16.1295%
DRC-1; 10'; concentration 10
  % inhibition Apo pol 10': 45.2437%
DRC-1; 10'; concentration 20
  % inhibition Apo pol 10': 76.7316%
DRC-1; 10'; concentration 40
  % inhibition Apo pol 10': 94.6893%
DRC-1; 10'; concentration 80
  % inhibition Apo pol 10': 97.2345%
DRC-1; 90'; concentration 2.5
  % inhibition Apol 90': -7.663%
DRC-1; 90'; concentration 5
  % inhibition Apol 90': -2.39%
DRC-1; 90'; concentration 10
  % inhibition Apol 90': 21.9297%
DRC-1; 90'; concentration 20
  % inhibition Apol 90': 56.4964%
DRC-1; 90'; concentration 40
  % inhibition Apol 90': 89.2946%
DRC-1; 90'; concentration 80
  % inhibition Apol 90': 96.5262%
DRC-1; 180'; concentration 2.5
  % inhibition apPOL 180': -11.4597%
DRC-1; 180'; concentration 5
  % inhibition apPOL 180': -6.316%
DRC-1; 180'; concentration 10
  % inhibition apPOL 180': 13.8407%
DRC-1; 180'; concentration 20
  % inhibition apPOL 180': 46.2939%
DRC-1; 180'; concentration 40
  % inhibition apPOL 180': 87.0263%
DRC-1; 180'; concentration 80
  % inhibition apPOL 180': 96.2979%
DRC-2, 40', concentration 10 (unit not given)
  % inhibition Apol 40': 27%
DRC-2, 90', concentration 5 (unit not given)
  % inhibition ApPOL 90': 7%
DRC-2, 180', concentration 5 (unit not given)
  % inhibition apPOL 180': 7%
DRC-2; 5'; concentration 2.5
  % inhibition Apo pol 5': 6.5%
DRC-2; 5'; concentration 5
  % inhibition Apo pol 5': 27%
DRC-2; 5'; concentration 5 (unit not given)
  % inhibition Apo pol 5': 27%
DRC-2; 5'; concentration 10
  % inhibition Apo pol 5': 41%
DRC-2; 5'; concentration 20
  % inhibition Apo pol 5': 55%
DRC-2; 5'; concentration 40
  % inhibition Apo pol 5': 64%
DRC-2; 5'; concentration 80
  % inhibition Apo pol 5': 69%
DRC-2; 40'; concentration 2.5
  % inhibition Apol 40': -7%
DRC-2; 40'; concentration 5
  % inhibition Apol 40': 10%
DRC-2; 40'; concentration 10
  % inhibition Apol 40': 27%
DRC-2; 40'; concentration 20
  % inhibition Apol 40': 54%
DRC-2; 40'; concentration 40
  % inhibition Apol 40': 72%
DRC-2; 40'; concentration 80
  % inhibition Apol 40': 81%
DRC-2; 90'; concentration 2.5
  % inhibition ApPOL 90': -8%
DRC-2; 90'; concentration 5
  % inhibition ApPOL 90': 7%
DRC-2; 90'; concentration 10
  % inhibition ApPOL 90': 23%
DRC-2; 90'; concentration 20
  % inhibition ApPOL 90': 53%
DRC-2; 90'; concentration 40
  % inhibition ApPOL 90': 74%
DRC-2; 90'; concentration 80
  % inhibition ApPOL 90': 84%
DRC-2; 180'; concentration 2.5
  % inhibition apPOL 180': -3.79%
DRC-2; 180'; concentration 5
  % inhibition apPOL 180': 7%
DRC-2; 180'; concentration 10
  % inhibition apPOL 180': 20%
DRC-2; 180'; concentration 20
  % inhibition apPOL 180': 50%
DRC-2; 180'; concentration 40
  % inhibition apPOL 180': 75%
DRC-2; 180'; concentration 80
  % inhibition apPOL 180': 86%
Primary screen value of the library well; unit not given; 90 min, 10 µM
  DNA Pol: 27

## Cc1ccc(NC(=O)Cn2ccc3c(=O)[nH]ccc32)c(C)c1 [KU0205125]
'DNA Pol' of the 186 hits list (screen value); 90 min, 10 µM
  DNA Pol: 21
DRC-1; 10'; conc 2.5
  % inhibition Apo pol 10': 10.1191%
DRC-1; 10'; conc 5
  % inhibition Apo pol 10': 18.1282%
DRC-1; 10'; conc 10
  % inhibition Apo pol 10': 33.277%
DRC-1; 10'; conc 20
  % inhibition Apo pol 10': 57.4285%
DRC-1; 10'; conc 40
  % inhibition Apo pol 10': 86.5673%
DRC-1; 10'; conc 80
  % inhibition Apo pol 10': 93.6236%
DRC-1; 90'; conc 2.5
  % inhibition Apol 90': 1.128%
DRC-1; 90'; conc 5
  % inhibition Apol 90': 2.856%
DRC-1; 90'; conc 10
  % inhibition Apol 90': 16.2688%
DRC-1; 90'; conc 20
  % inhibition Apol 90': 36.6738%
DRC-1; 90'; conc 40
  % inhibition Apol 90': 74.6586%
DRC-1; 90'; conc 80
  % inhibition Apol 90': 93.7132%
DRC-1; 180'; conc 2.5
  % inhibition apPOL 180': -4.92%
DRC-1; 180'; conc 5
  % inhibition apPOL 180': -5.3418%
DRC-1; 180'; conc 10
  % inhibition apPOL 180': 4.52%
DRC-1; 180'; conc 20
  % inhibition apPOL 180': 18.6019%
DRC-1; 180'; conc 40
  % inhibition apPOL 180': 59.9504%
DRC-1; 180'; conc 80
  % inhibition apPOL 180': 92.9849%
DRC-2; 5'; conc 2.5
  % inhibition Apo pol 5': -2.19%
DRC-2; 5'; conc 5
  % inhibition Apo pol 5': 1.9%
DRC-2; 5'; conc 10
  % inhibition Apo pol 5': 23%
DRC-2; 5'; conc 20
  % inhibition Apo pol 5': 44%
DRC-2; 5'; conc 40
  % inhibition Apo pol 5': 52%
DRC-2; 5'; conc 80
  % inhibition Apo pol 5': 50%
DRC-2; 5'; concentration 20
  % inhibition Apo pol 5': 44%
DRC-2; 40'; conc 2.5
  % inhibition Apol 40': -3.78%
DRC-2; 40'; conc 5
  % inhibition Apol 40': -0.571%
DRC-2; 40'; conc 10
  % inhibition Apol 40': 20%
DRC-2; 40'; conc 20
  % inhibition Apol 40': 48%
DRC-2; 40'; conc 40
  % inhibition Apol 40': 70%
DRC-2; 40'; conc 80
  % inhibition Apol 40': 73%
DRC-2; 90'; conc 2.5
  % inhibition ApPOL 90': -5%
DRC-2; 90'; conc 5
  % inhibition ApPOL 90': -4%
DRC-2; 90'; conc 10
  % inhibition ApPOL 90': 15%
DRC-2; 90'; conc 20
  % inhibition ApPOL 90': 44%
DRC-2; 90'; conc 40
  % inhibition ApPOL 90': 71%
DRC-2; 90'; conc 80
  % inhibition ApPOL 90': 78%
DRC-2; 90'; concentration 20
  % inhibition ApPOL 90': 44%
DRC-2; 180'; conc 2.5
  % inhibition apPOL 180': -10%
DRC-2; 180'; conc 5
  % inhibition apPOL 180': -11%
DRC-2; 180'; conc 10
  % inhibition apPOL 180': 3%
DRC-2; 180'; conc 20
  % inhibition apPOL 180': 30%
DRC-2; 180'; conc 40
  % inhibition apPOL 180': 69%
DRC-2; 180'; conc 80
  % inhibition apPOL 180': 82%
Primary screen value, "DNA Pol"; 90 min, 10 µM
  DNA Pol: 21

## CCc1ccccc1NC(=O)c1ccc(-c2ncccc2NC(C)=O)cc1 [KU0203112]
DRC-1; concentration 2.5; 10'
  % inhibition Apo pol 10': 16.2237%
DRC-1; concentration 2.5; 90'
  % inhibition Apol 90': 2.255%
DRC-1; concentration 2.5; 180'
  % inhibition apPOL 180': -4.969%
DRC-1; concentration 5; 10'
  % inhibition Apo pol 10': 20.5956%
DRC-1; concentration 5; 90'
  % inhibition Apol 90': 6.528%
DRC-1; concentration 5; 180'
  % inhibition apPOL 180': -1.7806%
DRC-1; concentration 10; 10'
  % inhibition Apo pol 10': 40.7013%
DRC-1; concentration 10; 90'
  % inhibition Apol 90': 22.2992%
DRC-1; concentration 10; 180'
  % inhibition apPOL 180': 9.63%
DRC-1; concentration 20; 10'
  % inhibition Apo pol 10': 66.0159%
DRC-1; concentration 20; 90'
  % inhibition Apol 90': 44.8534%
DRC-1; concentration 20; 180'
  % inhibition apPOL 180': 25.9288%
DRC-1; concentration 40; 10'
  % inhibition Apo pol 10': 83.2179%
DRC-1; concentration 40; 90'
  % inhibition Apol 90': 72.954%
DRC-1; concentration 40; 180'
  % inhibition apPOL 180': 58.4495%
DRC-1; concentration 80 (unit not given); 10'
  % inhibition Apo pol 10': 89.6121%
DRC-1; concentration 80; 90'
  % inhibition Apol 90': 90.3611%
DRC-1; concentration 80; 180'
  % inhibition apPOL 180': 89.009%
DRC-2; 90'; concentration 40
  % inhibition ApPOL 90': 70%
DRC-2; 180'; concentration 40
  % inhibition apPOL 180': 70%
DRC-2; concentration 2.5; 5'
  % inhibition Apo pol 5': 0.547%
DRC-2; concentration 2.5; 40'
  % inhibition Apol 40': 0.556%
DRC-2; concentration 2.5; 90'
  % inhibition ApPOL 90': -1.65%
DRC-2; concentration 2.5; 180'
  % inhibition apPOL 180': -5.44%
DRC-2; concentration 5; 5'
  % inhibition Apo pol 5': 5.51%
DRC-2; concentration 5; 40'
  % inhibition Apol 40': 7%
DRC-2; concentration 5; 90'
  % inhibition ApPOL 90': 5.44%
DRC-2; concentration 5; 180'
  % inhibition apPOL 180': -1.68%
DRC-2; concentration 10; 5'
  % inhibition Apo pol 5': 27%
DRC-2; concentration 10; 40'
  % inhibition Apol 40': 28%
DRC-2; concentration 10; 90'
  % inhibition ApPOL 90': 25%
DRC-2; concentration 10; 180'
  % inhibition apPOL 180': 14%
DRC-2; concentration 20; 5'
  % inhibition Apo pol 5': 43%
DRC-2; concentration 20; 40'
  % inhibition Apol 40': 54%
DRC-2; concentration 20; 90'
  % inhibition ApPOL 90': 52%
DRC-2; concentration 20; 180'
  % inhibition apPOL 180': 41%
DRC-2; concentration 40; 5'
  % inhibition Apo pol 5': 50%
DRC-2; concentration 40; 40'
  % inhibition Apol 40': 68%
DRC-2; concentration 40; 90'
  % inhibition ApPOL 90': 70%
DRC-2; concentration 40; 180'
  % inhibition apPOL 180': 70%
DRC-2; concentration 80; 5'
  % inhibition Apo pol 5': 47%
DRC-2; concentration 80; 40'
  % inhibition Apol 40': 69%
DRC-2; concentration 80; 90'
  % inhibition ApPOL 90': 74%
DRC-2; concentration 80; 180'
  % inhibition apPOL 180': 77%
Primary screen value of the 186 hits; unit not given; 90 min, 10 µM
  DNA Pol: 26
Primary screen value; head prints only 'DNA Pol'; 90 min, 10 µM
  DNA Pol: 26
